Assay results as given in patent publication US11633382B2, “Treatment of ER-negative breast cancer with an PDGF-CC inhibitor and anti-estrogen” (Paracrine Therapeutics AB, priority 2015, dated 2023).

How the values were obtained:
[1] = test system: Human MDA-MB-231 cells; assay: MDA-MB-231 orthotopic xenograft, anti-PDGF-CC and aromatase inhibitor (Example 2); type: in vivo, SCID mice; conditions: A3B6 i.p. twice a week, letrozole 1 mg/dose oral daily; combination p<0.01 vs control, p<0.05 vs A3B6, p<0.001 vs letrozole (FIG. 7)
Text: All therapeutic administrations were open-label.

[2] = test system: MDA-MB-231 tumors (basal-like subtype); assay: MDA-MB-231 xenograft in SCID mice, tumor growth and angiogenesis (Example 1); type: in vivo; conditions: tamoxifen oral gavage daily with control antibody or A3B6 (FIG. 6c-d)
Method: 2×10^6 Human MDA-MB-231 cells were inoculated subcutaneously in immunodeficient mice. […] When tumors were palpable (longest diameter >3 mm), mice were randomized and treated with Tamoxifen (3 mg/kg) or vehicle (corn oil) via oral gavage daily.
In order to investigate whether pharmacological targeting of PDGF-CC as a mono-therapy impacted on breast tumor growth or angiogenesis, we treated SCID mice bearing orthotopically implanted MDA-MB-231 tumors (basal-like subtype) twice-weekly with the PDGF-CC antibody, A3B6 or with control antibody.
The clinically most important distinguishing feature of luminal subtype breast tumors is the expression of ERα, which confers sensitivity to hormone therapy, such as tamoxifen. We next set out to investigate whether targeting of PDGF-CC would convey sensitivity to hormone therapy to previously impervious ER-negative breast tumors of basal-like subtype. Non-transgenic mice bearing orthopically transplanted tumors from MMTV-PyMT; Pdgfc^+/+ or MMTV-PyMT; Pdgfc^lacz/lacz mice were treated daily with tamoxifen starting from […].

[3] = test system: MMTV-PyMT; Pdgfc+/+ tumors; assay: Orthotopically transplanted MMTV-PyMT; Pdgfc+/+ (wt) tumors, tamoxifen trial; type: in vivo, FVB/N mice; conditions: tamoxifen daily (FIG. 6a)
Method: (§1) 3 weeks old FVB/N (common background strain for both MMTV-PyMT and PDGF-C mice) female mice were anesthetized and maintained under Isolfluorane during the surgical procedure. A 4 mm incision under the nipple of the right abdominal mammary gland created a pocket where a 2×2 mm tumor piece (kept on ice, either from MMTV-PyMT or MMTV-PyMT; PDGF-C tumors) was inserted. Suturing was performed with 6-O Ethilon polyamide filament (Ethicon). Pain-killer and anti-inflammatory Rimadyl (5 mg/kg body weight; Orion Pharma Animal Health) was injected i.p. at the end of the surgical procedure and for the following two days. For the therapeutic trial, Tamoxifen (2 mg/mL) was diluted in corn oil (vehicle) and administered via oral gavage daily.
(§2) Mouse mammary cell lines MMTV . . . MMTV/PDGF-C−/− . . . (established in our laboratory) were orthotopically injected into the 4th inguinal mammary gland on FVB/N mice. Furthermore, small tumor pieces (2 mm^3) of MMTV-PyMT and MMTV-PDGF-CC−/− tumors were directly orthotopically transplanted under anesthesia. The mice were subjected to Rimadyl immediately after the surgery and the following two days for analgetics. The tumors were measured twice a week and mice were euthanized as described above. […]

[4] = test system: MMTV-PyMT; Pdgfc^lacz/lacz tumors; assay: Orthotopically transplanted MMTV-PyMT; Pdgfc lacz/lacz tumors, tamoxifen trial; type: in vivo, FVB/N mice; conditions: Pdgfc-deficient tumors
Method: as §1, §2

[5] = test system: ER-negative breast cancer; conditions: ER-negative disease, patients; cited from earlier work

Compound | tumor growth, difference between groups [1] | growth of fully established MDA-MB-231 tumors [2] | tumor growth rate vs untreated mice [3] | tumor growth ([4]; tamoxifen daily (FIG. 6b)) | tumor volume at the end of the trial ([4]; tamoxifen daily, untreated tumors had grown) | effect on breast cancer recurrence or mortality [5]
N#Cc1ccc(C(c2ccc(C#N)cc2)n2cncn2)cc1 [letrozole] | no other differences are statistically significant |  |  |  |  | 
CCC(=C(c1ccccc1)c1ccc(OCCN(C)C)cc1)c1ccccc1 [tamoxifen, 2-[4-(1,2-diphenylbut-1-enyl)phenoxy]-N,N-dimethyl-ethanamine] |  | unable to influence the growth | continued to grow at a similar rate | severely growth-retarded | reduced volume | little or no effect
